In publication PMC6023887, “GTP-binding facilitates EB1 recruitment onto microtubules by relieving its auto-inhibition” (Scientific Reports, 2018):
Changes are numbered by the printed parent chain. Names and notes keep the numbering of the source. Blank lines part the entries; values can stand above or below the molecule they belong to.

Experiments:
[1] = biological target: T1, full length EB1 (His-tagged) (Homo sapiens, UniProt Q15691); assay: isothermal titration calorimetry; type: binding; details: 80 mM PIPES, 1 mM EGTA, 1 mM MgCl2, pH 6.9, 25 °C; N fixed at 2; range over three experiments, printed jointly for EB1n and full length; saturation incomplete
T1 construct: gene MAPRE1; full length 268 residues, His-tagged, recombinant, purified as in authors' earlier work; dimer
T1 sequence (Q15691 1-268): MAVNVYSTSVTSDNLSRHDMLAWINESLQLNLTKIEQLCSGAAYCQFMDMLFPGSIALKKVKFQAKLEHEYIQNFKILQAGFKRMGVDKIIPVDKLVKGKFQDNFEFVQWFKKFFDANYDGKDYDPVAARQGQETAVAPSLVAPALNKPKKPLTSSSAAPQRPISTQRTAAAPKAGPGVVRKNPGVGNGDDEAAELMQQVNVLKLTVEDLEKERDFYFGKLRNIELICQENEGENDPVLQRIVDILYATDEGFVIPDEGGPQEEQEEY

[2] = biological target: T2, EB1n (EB1 N-terminus, residues 1-151) (Homo sapiens, UniProt Q15691); assay: isothermal titration calorimetry; type: binding; details: 80 mM PIPES, 1 mM EGTA, 1 mM MgCl2, pH 6.9, 25 °C; N fitted freely; range over three experiments, printed jointly for EB1n and full length; noisy data; NMR in other buffers gives mM Kd
T2 construct: gene MAPRE1; N-terminal fragment 1-151 containing CH domain (1-130); pET3d, E. coli BL21(DE3), untagged, cation exchange; mainly monomer
T2 sequence (Q15691 1-151): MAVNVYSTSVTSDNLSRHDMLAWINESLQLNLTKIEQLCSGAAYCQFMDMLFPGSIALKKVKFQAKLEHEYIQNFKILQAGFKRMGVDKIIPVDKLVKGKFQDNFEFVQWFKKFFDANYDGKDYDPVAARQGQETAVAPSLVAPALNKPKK

[3] = biological target: Microtubules polymerized from tubulin with GTPγS (UniProt P02550 1-451); assay: binding to microtubules held on coverslips, wash, SDS-PAGE of the bound protein; microtubules (40 µM tubulin, GTPγS) on poly-lysine coverslips, washed; 10 µM EB1-GFP protein added, 10 min at 37 °C (15 min in the legend), BRB80; unbound protein washed off; Coomassie bands normalized against tubulin; the paper calls it sedimentation; details: both partners purified
[4] = biological target: Rhodamine labeled microtubules polymerized with GTPγS (UniProt P02550 1-451, rhodamine on part of the tubulin (3 µM rhodamine-labeled tubulin with 40 µM tubulin)); which chain carries it is not stated | rhodamine on part of the tubulin (3 µM rhodamine-labeled tubulin with 40 …); assay: confocal fluorescence imaging of purified EB1-GFP on microtubules held on coverslips; rhodamine microtubules (GTPγS) on poly-lysine coverslips, washed free of GTPγS; 10 µM EB1-GFP protein added, 10 min, 37 °C, BRB80 pH 6.9; fixed with 1% glutaraldehyde; GFP intensity per pixel along microtubules; details: both partners purified

Kd [1]: ~10 to ~30 µM
Kd [2]: ~10 to ~30 µM
Molecule: Nc1nc2c(ncn2[C@@H]2O[C@H](COP(=O)(O)OP(=O)(O)OP(=O)(O)O)[C@@H](O)[C@H]2O)c(=O)[nH]1 [GTP]

fold amount bound to microtubules against wild-type EB1 [3]: ~1.5 fold
fold increase of GFP intensity per pixel on microtubules against wild-type EB1-GFP [4]: ~2 fold
B1: EB1 R17A H18A-GFP (natural protein, human, UniProt Q15691 1-268, looked up)
chain: T1 sequence (Q15691 1-268) with R17A, H18A
notes: EB1, human, full-length cDNA with R17A and H18A; Made with the WT EB1-GFP pET22b eGFP plasmid as template; also called R17A H18A EB1-GFP; mutant EB1-GFP; source: E. coli BL21 (DE3), purified (Ni-NTA)
